Measured values published in PubChem BioAssay (NCI).
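Briefly, cells in 96-well plates were exposed to five compound concentrations for 48 h, and endpoints were estimated by linear interpolation. GI50 = concentration required for 50% inhibition of growth. At the TGI there is no net growth.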

Columns and labels:
Experiment in all cases: NCI anticancer screen, dose series, 48 h
NCI-H226 lung = system: NCI-H226 lung
NCI-H460 lung = system: NCI-H460 lung
HCC-2998 colon = system: HCC-2998 colon
HOP-62 NSCLC = system: HOP-62 NSCLC
OVCAR-3 ovarian = system: OVCAR-3 ovarian
A549 NSCLC = system: A549 NSCLC
T-47D breast = system: T-47D breast
SK-MEL-5 melanoma = system: SK-MEL-5 melanoma
MDA-MB-231 breast = system: MDA-MB-231 breast

Compound `C/C(=N\NC(=O)c1sc(=S)n(C)c1N)c1cc2ccccc2o1` has a GI50 (NCI-H226 lung) of 18.7 µM, a TGI (NCI-H226 lung) of 40.4 µM and a GI50 (NCI-H460 lung) of 5.89 µM. The TGI (NCI-H460 lung) was 24.1 µM, the GI50 (HCC-2998 colon) was 11.8 µM and the TGI (HCC-2998 colon) was 27 µM. It also gave a GI50 (HOP-62 NSCLC) of 13.3 µM, a TGI (HOP-62 NSCLC) of 27.2 µM and a GI50 (OVCAR-3 ovarian) of 15.5 µM. For the same compound, the TGI (OVCAR-3 ovarian) was 29.9 µM, the GI50 (A549 NSCLC) was 7.68 µM and the TGI (A549 NSCLC) was 20.2 µM. The GI50 (T-47D breast) was 18.6 µM, the TGI (T-47D breast) was > 100 µM and the GI50 (SK-MEL-5 melanoma) was 10.8 µM. The TGI (SK-MEL-5 melanoma) was 30.1 µM, the GI50 (MDA-MB-231 breast) was 4.86 µM and the TGI (MDA-MB-231 breast) was 16.5 µM.

For `COc1ccc(-c2cc(-c3cc(Cl)ccc3Cl)nc3n[nH]c(N)c23)cc1`, the GI50 (NCI-H226 lung) was 63.4 µM, the TGI (NCI-H226 lung) was > 100 µM and the GI50 (NCI-H460 lung) was 6.68 µM. The TGI (NCI-H460 lung) was 39.3 µM, the GI50 (HCC-2998 colon) was 15.2 µM and the TGI (HCC-2998 colon) was 34.6 µM. For the same compound, the GI50 (HOP-62 NSCLC) was 14.7 µM, the TGI (HOP-62 NSCLC) was 84.6 µM and the GI50 (OVCAR-3 ovarian) was 8.82 µM. For the same compound, the TGI (OVCAR-3 ovarian) was 61.9 µM, the GI50 (A549 NSCLC) was 28.8 µM and the TGI (A549 NSCLC) was > 100 µM. For the same compound, the GI50 (T-47D breast) was 30.8 µM, the TGI (T-47D breast) was > 100 µM and the GI50 (SK-MEL-5 melanoma) was 14.4 µM. The TGI (SK-MEL-5 melanoma) was 34.5 µM, the GI50 (MDA-MB-231 breast) was 34 µM and the TGI (MDA-MB-231 breast) was > 100 µM.

Compound `Cn1cc(-c2ccc3c(Nc4cccc(NC(=O)Nc5cccc(F)c5)c4)ncnc3c2)cn1` has a GI50 (NCI-H226 lung) of 12.1 µM, a TGI (NCI-H226 lung) of 35.9 µM and a GI50 (NCI-H460 lung) of 0.984 µM. For the same compound, the TGI (NCI-H460 lung) was 2.41 µM, the GI50 (HCC-2998 colon) was 4.81 µM and the TGI (HCC-2998 colon) was 16.2 µM. It also gave a GI50 (HOP-62 NSCLC) of 1.84 µM, a TGI (HOP-62 NSCLC) of 14.9 µM and a GI50 (OVCAR-3 ovarian) of 1.51 µM. For the same compound, the TGI (OVCAR-3 ovarian) was 3.27 µM, the GI50 (A549 NSCLC) was 1.85 µM and the TGI (A549 NSCLC) was 17.9 µM. It also gave a GI50 (T-47D breast) of 1.62 µM, a TGI (T-47D breast) of 28.7 µM and a GI50 (SK-MEL-5 melanoma) of 1.53 µM. It also gave a TGI (SK-MEL-5 melanoma) of 2.94 µM, a GI50 (MDA-MB-231 breast) of 2.88 µM and a TGI (MDA-MB-231 breast) of 12.3 µM.

`CC[C@]1(O)CC(OC2CC(N(C)C)C(O)C(C)O2)c2c(cc3c(c2O)C(=O)c2c(O)cccc2C3=O)[C@@H]1C(=O)OC` (stereo partly drawn) gave a TGI (NCI-H226 lung) of 2.17 µM, a TGI (NCI-H460 lung) of 3.46 µM and a TGI (HCC-2998 colon) of 1.54 µM. The TGI (HOP-62 NSCLC) was 2.14 µM, the TGI (OVCAR-3 ovarian) was 5.67 µM and the TGI (A549 NSCLC) was 6.59 µM. For the same compound, the TGI (T-47D breast) was 5.54 µM, the TGI (SK-MEL-5 melanoma) was 0.941 µM and the TGI (MDA-MB-231 breast) was 4.2 µM.

For `CC1(C)N=C(N)N=C(N)N1c1cccc(CCCCc2cccc(S(=O)(=O)F)c2)c1`, the GI50 (NCI-H226 lung) was 8.93 µM, the TGI (NCI-H226 lung) was > 100 µM and the GI50 (NCI-H460 lung) was 0.327 µM. The TGI (NCI-H460 lung) was > 75.7 µM, the GI50 (HCC-2998 colon) was 3.17 µM and the TGI (HCC-2998 colon) was > 56.3 µM. For the same compound, the GI50 (HOP-62 NSCLC) was 3.04 µM, the TGI (HOP-62 NSCLC) was > 47.9 µM and the GI50 (OVCAR-3 ovarian) was 4.29 µM. For the same compound, the TGI (OVCAR-3 ovarian) was 27.1 µM, the GI50 (A549 NSCLC) was 0.751 µM and the TGI (A549 NSCLC) was > 100 µM. For the same compound, the GI50 (T-47D breast) was 12.3 µM, the TGI (T-47D breast) was 45.1 µM and the GI50 (SK-MEL-5 melanoma) was 0.535 µM. The TGI (SK-MEL-5 melanoma) was 14.8 µM, the GI50 (MDA-MB-231 breast) was 6.6 µM and the TGI (MDA-MB-231 breast) was > 100 µM.

`Cc1cccc(NC(=O)CCc2ccc(N3C(N)=NC(N)=NC3(C)C)cc2)c1` was tested, and the GI50 (NCI-H226 lung) was > 64.7 µM, the TGI (NCI-H226 lung) was > 100 µM and the GI50 (NCI-H460 lung) was 0.454 µM. The TGI (NCI-H460 lung) was > 100 µM, the GI50 (HCC-2998 colon) was 3.34 µM and the TGI (HCC-2998 colon) was > 100 µM. The GI50 (HOP-62 NSCLC) was 16.9 µM, the TGI (HOP-62 NSCLC) was > 100 µM and the GI50 (OVCAR-3 ovarian) was 6.76 µM. The TGI (OVCAR-3 ovarian) was > 100 µM, the GI50 (A549 NSCLC) was 0.188 µM and the TGI (A549 NSCLC) was > 29 µM. For the same compound, the GI50 (T-47D breast) was 38.6 µM, the TGI (T-47D breast) was > 100 µM and the GI50 (SK-MEL-5 melanoma) was 2.48 µM. For the same compound, the TGI (SK-MEL-5 melanoma) was > 100 µM, the GI50 (MDA-MB-231 breast) was > 65.2 µM and the TGI (MDA-MB-231 breast) was > 100 µM.

For `COc1cccc(C2c3cc4c(cc3OC(C)(N3CCCC3)C2C)OCO4)c1OC` (stereo not drawn), the TGI (NCI-H226 lung) was 58.5 µM, the TGI (NCI-H460 lung) was 28.4 µM and the TGI (HCC-2998 colon) was 53.2 µM. The TGI (HOP-62 NSCLC) was 30.6 µM, the TGI (OVCAR-3 ovarian) was 25.4 µM and the TGI (A549 NSCLC) was 35.8 µM. The TGI (T-47D breast) was 46.6 µM, the TGI (SK-MEL-5 melanoma) was 28.4 µM and the TGI (MDA-MB-231 breast) was 52.9 µM.
